US12636385B2, “Selective ligands for tau aggregates” (Sentonix, Inc., priority 2018, dated 2026)
Like-named read-outs stand apart in the source and are kept apart here. Values belong to the compound of their own block, whether it stands above or below them.

Assays:
[1] = Rat brain cassette exposure study; type: in vivo, Sprague Dawley rat; conditions: intravenous cassette dosing; for half-life: male, Sprague Dawley, rat, brain, read-out: calculated half-life (t1/2) in rat brain tissue
Description: The in vivo pharmacokinetic characteristics of the example compounds of the invention were compared directly with the known beta-amyloid specific ligand AZD2184 (Johnson, A. E., et al, Journal of Neurochemistry (2009), Vol. 108, pages 1177-1186). Rat brain exposure to three compounds of the invention and AZD2184 was measured by intravenous cassette dosing three test compound: Example Compound 43, Example Compound 47 and Example Compound 48; and AZD2184 (Novandi Chemistry) (concentration of 0.25 μmol/mL each) using the procedure previously described in Johnson, A. E., et al, Journal of Neurochemistry (2009), Vol. 108, pages 1177-1186. 6 male Sprague Dawley rat were used in the experiments, three rats per time point (2 min and 30 min).

[2] = literature value; cited from earlier work
MAO-A [3] = target: T1, MAO-A (Rattus norvegicus, UniProt P21396); test: MAO-A binding assay ([^3H]-Ro41-1049); conditions: tested at 1 μM, rat cerebral cortex; for inhibition at 1 µM: read-out: % inhibition of control specific binding, MAO-A binding assay
T1 construct: tissue EuroFins Pharma Discovery Service (assay service); host or cells: rat cerebral cortex (own knowledge of the vendor's assay)
T1 sequence (P21396 1-526): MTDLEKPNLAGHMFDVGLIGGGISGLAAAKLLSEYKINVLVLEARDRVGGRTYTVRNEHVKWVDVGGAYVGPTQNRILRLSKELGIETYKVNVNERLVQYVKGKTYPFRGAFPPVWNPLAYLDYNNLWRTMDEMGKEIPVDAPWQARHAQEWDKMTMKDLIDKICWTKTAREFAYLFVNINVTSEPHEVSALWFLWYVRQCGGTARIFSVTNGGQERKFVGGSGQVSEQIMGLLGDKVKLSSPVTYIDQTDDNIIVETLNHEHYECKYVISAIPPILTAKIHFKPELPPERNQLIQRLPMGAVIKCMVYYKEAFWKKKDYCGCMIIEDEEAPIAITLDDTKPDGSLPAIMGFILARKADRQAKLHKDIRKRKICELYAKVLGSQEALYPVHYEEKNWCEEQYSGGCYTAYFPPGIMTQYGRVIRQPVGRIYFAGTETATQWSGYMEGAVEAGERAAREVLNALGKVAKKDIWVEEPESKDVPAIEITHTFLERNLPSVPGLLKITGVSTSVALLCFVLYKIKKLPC
Description: A monoamine oxidase inhibitor (MAO) binding assay for MAO-A was performed (EuroFins Pharma Discovery Service) for Example Compound 43, Example Compound 48 and the known tau ligand THK-5117. The three compounds were tested at 1 μM. Compound binding was calculated as a % inhibition of the binding of the selective MAO-A inhibitor [^3H]-Ro41-1049 for MAO-A binding.
The MAO-A binding assay was carried our as described in Cesura, A. M., et al, Mol. Phamacol. (1990), Vol 37, pages 358-366, using the materials and conditions described in Table 3.
The results of the MAO-A binding assay are expressed as a percent inhibition of control specific binding obtained in the presence of the test compounds: […]

MAO-A [4] = target: T2, MAO-A (Homo sapiens, UniProt P21397); test: MAO-A enzyme and uptake assay (kynuramine); type: biochemical; conditions: tested at 1 μM, human placenta; for inhibition at 1 µM: read-out: % inhibition of control enzyme activity, MAO-A
T2 construct: EuroFins Pharma Discovery Service (assay service)
T2 sequence (P21397 1-527): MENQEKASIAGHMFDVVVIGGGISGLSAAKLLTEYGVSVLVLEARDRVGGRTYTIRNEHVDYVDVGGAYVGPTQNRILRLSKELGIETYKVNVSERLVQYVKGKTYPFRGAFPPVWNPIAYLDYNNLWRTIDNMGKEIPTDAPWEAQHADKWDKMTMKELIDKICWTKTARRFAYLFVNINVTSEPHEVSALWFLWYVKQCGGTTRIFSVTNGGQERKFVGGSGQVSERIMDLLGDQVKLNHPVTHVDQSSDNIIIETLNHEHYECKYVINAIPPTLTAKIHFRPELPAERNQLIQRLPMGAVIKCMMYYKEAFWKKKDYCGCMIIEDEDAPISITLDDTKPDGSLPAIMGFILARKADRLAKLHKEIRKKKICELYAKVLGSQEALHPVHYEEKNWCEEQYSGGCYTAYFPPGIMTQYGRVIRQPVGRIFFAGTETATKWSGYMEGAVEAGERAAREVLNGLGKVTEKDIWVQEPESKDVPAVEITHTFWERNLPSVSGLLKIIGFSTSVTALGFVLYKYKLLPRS
Description: (§1) MAO enzyme and uptake assays were also performed (EuroFins Pharma Discovery Service) as described in Weyler, W., et al., J. Biol. Chem. (1985), Vol. 260, pages 13199-13207, using the materials and conditions described in Table 4; and as described in Tsugeno, U., et al., J Biochem. (1995), Vol. 118, pages 974-980, using the materials and conditions described in Table 5, for Example Compound 43, Example Compound 48 and the known tau ligand THK-5117. The three compounds were tested at 1 μM. Compound enzyme/uptake inhibition effect was calculated as a % inhibition of control enzyme activity.
(§2) The results of the enzyme and uptake assays are expressed as a percent inhibition of control specific activity obtained in the presence of the test compounds: […]

MAO-B = target: T3, MAO-B (Homo sapiens, UniProt P27338); test: MAO-B recombinant enzyme assay (D-Luciferin derivative); type: biochemical; conditions: tested at 1 μM; for inhibition at 1 µM: read-out: % inhibition of control enzyme activity, MAO-B
T3 construct: EuroFins Pharma Discovery Service (assay service)
T3 sequence (P27338 1-520): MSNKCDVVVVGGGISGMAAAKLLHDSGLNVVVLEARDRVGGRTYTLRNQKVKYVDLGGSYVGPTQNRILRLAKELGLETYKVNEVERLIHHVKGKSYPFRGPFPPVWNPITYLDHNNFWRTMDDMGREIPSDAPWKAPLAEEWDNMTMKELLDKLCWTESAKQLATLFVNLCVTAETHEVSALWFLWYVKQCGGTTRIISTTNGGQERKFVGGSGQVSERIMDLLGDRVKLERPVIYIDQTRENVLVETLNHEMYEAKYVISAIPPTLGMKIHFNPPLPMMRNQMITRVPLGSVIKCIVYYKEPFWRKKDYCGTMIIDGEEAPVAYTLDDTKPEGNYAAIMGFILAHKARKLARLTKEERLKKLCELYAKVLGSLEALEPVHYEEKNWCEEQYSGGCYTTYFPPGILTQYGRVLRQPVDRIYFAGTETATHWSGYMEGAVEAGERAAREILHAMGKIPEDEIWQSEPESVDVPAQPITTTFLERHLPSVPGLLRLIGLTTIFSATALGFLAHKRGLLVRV
Description: as §1, §2

0N4R Tau fibrils = target: T4, 0N4R Tau fibrils (Homo sapiens, UniProt P10636); test: In vitro competitive binding to 0N4R tau fibrils in the presence of [^3H]-Example Compound 68 (FIG. 1)
T4 construct: made in house
T4 sequence (P10636 1-383 isoform P10636-6): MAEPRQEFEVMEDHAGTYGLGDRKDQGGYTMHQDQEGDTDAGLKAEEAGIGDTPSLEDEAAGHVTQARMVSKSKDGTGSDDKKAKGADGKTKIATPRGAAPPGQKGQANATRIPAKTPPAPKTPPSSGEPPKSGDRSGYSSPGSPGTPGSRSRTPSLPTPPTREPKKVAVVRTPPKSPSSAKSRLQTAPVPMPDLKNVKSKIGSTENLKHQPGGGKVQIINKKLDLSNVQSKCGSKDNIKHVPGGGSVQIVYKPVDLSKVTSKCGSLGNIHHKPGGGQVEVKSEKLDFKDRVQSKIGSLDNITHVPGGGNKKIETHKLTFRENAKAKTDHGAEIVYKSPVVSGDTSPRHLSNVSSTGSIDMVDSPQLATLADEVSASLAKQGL

[5] = cited from earlier work

SMILES: CNc1ccc(-c2ccc3cc(OCC(O)CF)ccc3n2)cc1 (centres unmarked) [THK-5117, reference compound]
% inhibition of control specific binding, MAO-A binding assay (MAO-A [3]): ≤ 50%
% inhibition of control enzyme activity, MAO-A (MAO-A [4]): ≤ 50%
% inhibition of control enzyme activity, MAO-B (MAO-B): ≤ 50%

SMILES: CNc1ccc(/C=C/C=C/c2nc3ccc(O)cc3s2)cn1 [^11C-PBB3]
radiochemical purity after exposure to fluorescent light ([5]; at 1 min after exposure): 77%
radiochemical purity after exposure to fluorescent light ([5]; from 10 to 60 min): approximately 50%

The next lines start with results.

calculated half-life (t1/2) in rat brain tissue ([1]; samples at 2 min and 30 min): 6.65 min
SMILES: CNc1ccc(-c2nc3ccc(O)cc3s2)cn1 [AZD2184, reference compound]
t1/2 reported in Table 3 of Johnson, A. E., et al [2]: 6.8 min

half-life ([1]; samples at 2 min and 30 min): 379 min
inhibition at 1 µM (MAO-A [3]): < 25%
inhibition at 1 µM (MAO-A [4]): < 25%
inhibition at 1 µM (MAO-B): < 25%
SMILES: NC(=O)c1ccc2nc(-c3cnc(N4CCC(CCF)CC4)nc3)sc2c1 [Example Compound 43, 2-{2-[4-(2-Fluoroethyl)piperidin-1-yl]pyrimidin-5-yl}-1,3-benzothiazole-6-carboxamide]

tau binding site shared (competition with [^3H]-Example Compound 68) (0N4R Tau fibrils): share the same binding site
clearance from normal rat brain tissue ([1]; 2 min and 30 min): rapidly cleared
half-life ([1]; samples at 2 min and 30 min): 8.21 min
inhibition at 1 µM (MAO-A [3]): < 25%
inhibition at 1 µM (MAO-A [4]): < 25%
inhibition at 1 µM (MAO-B): < 25%
SMILES: OCC1CCN(c2ccc(-c3cc4cc(O)ccc4[nH]3)c(F)n2)CC1 [Example Compound 48, 2-{2-Fluoro-6-[4-(hydroxymethyl)piperidin-1-yl]pyridin-3-yl}-1H-indol-5-ol]
